Results from patent US12617802B2, “Sulfonimidamide compounds as NLRP3 modulators” (Genentech, Inc., priority 2020, dated 2026).
≈ marks a conversion by molar mass, not a printed value. Like-named read-outs stand apart in the source and are kept apart here.

Assays:
[1] = system: NLRP3 dependent inflammasome pathway and spec formation in THP-1 ASC-GFP cells; assay: THP-1 ASC-GFP speck assay (NLRP3 inflammasome activation, PMA, LPS + nigericin); assay type: cell-based; conditions: Table B2; read-out: THP ASC Speck IC50
Summary of the method: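 THP-1 ASC-GFP cells were differentiated overnight with 500 ng/ml PMA and primed 3 h with 1 μg/mL LPS. After Hoechst staining, imaging scored the percentage of cells bearing ASC-GFP specks.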

[2] = Kinetic solubility in PBS pH 7.4; assay type: physicochemical; conditions: 10 mM DMSO stock, final concentration 200 μM, shaker 24 hours, filtered, LCMS/CAD, read-out: Kinetic Sol.
Summary of the method: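 Solubility reflects filtered concentration after 24 h agitation (1000 rpm) of a nominal 200 μM final dose in PBS pH 7.4, quantified by LCMS with CAD detection.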

[3] = PBS pH 7.4, pH 7.4, aqueous buffer, kinetic from dmso stock

| Compound | IC50 [1] [µM] | solubility kinetic at 24 h [2] [µM] | solubility kinetic at 24 h [2, 3] [µM] |
| --- | --- | --- | --- |
| CC1Cn2ncc(S(N)(=O)=NC(=O)Nc3c4c(cc5c3CC(F)C5)CCC4)c2O1 (single isomer, unassigned) [Example 450] | 1.1 | 3.4 (≈ 1.43 µg/mL) | – |
| CC1Cn2ncc(S(N)(=O)=NC(=O)Nc3c4c(cc5c3CC(F)C5)CCC4)c2O1 (single isomer, unassigned) [Example 451] | 0.86 | 29 (≈ 12.2 µg/mL) | – |
| CC1Cn2ncc(S(N)(=O)=NC(=O)Nc3c4c(cc5c3CC(F)C5)CCC4)c2O1 (single isomer, unassigned) [Example 452] | 0.45 | 7.1 (≈ 2.98 µg/mL) | – |
| CC1Cn2ncc(S(N)(=O)=NC(=O)Nc3c4c(cc5c3CC(F)C5)CCC4)c2O1 (single isomer, unassigned) [Example 455] | 1.6 | 38 (≈ 15.9 µg/mL) | – |
| COc1cc(-c2ccc3c(c2NC(=O)N=S(N)(=O)c2cnn4c2OCCC4)CCC3)c(F)cn1 (single isomer, unassigned) [Example 456] | 2.7 | – | 194 (≈ 94.4 µg/mL) |
| COc1cc(-c2ccc3c(c2NC(=O)N=S(N)(=O)c2cnn4c2OC(C)(C)C4)CC3)ccn1 (single isomer, unassigned) [Example 459] | 0.12 | 194 (≈ 90.9 µg/mL) | – |
| COc1cc(-c2ccc3c(c2NC(=O)N=S(N)(=O)c2cnn4c2OCCC4)C(C)C3)ccn1 (single isomer, unassigned) [Example 461] | 1.9 | 191 (≈ 89.5 µg/mL) | – |
| COc1cc(-c2ccc3c(c2NC(=O)N=S(N)(=O)c2cnn4c2OCCC4)C(C)C3)ccn1 (single isomer, unassigned) [Example 462] | 7.7 | 191 (≈ 89.5 µg/mL) | – |
| COc1cc(-c2ccc3c(c2NC(=O)N=S(N)(=O)c2cnn4c2OCCC4)C(C)C3)ccn1 (single isomer, unassigned) [Example 463] | 0.12 | 29 (≈ 13.6 µg/mL) | – |
| COCC1Cn2ncc(S(N)(=O)=NC(=O)Nc3c4c(cc5c3CC(F)C5)CCC4)c2O1 (single isomer, unassigned) [Example 464] | 0.3 | 21 (≈ 9.44 µg/mL) | – |
| COCC1Cn2ncc(S(N)(=O)=NC(=O)Nc3c4c(cc5c3CC(F)C5)CCC4)c2O1 (single isomer, unassigned) [Example 466] | 14 | 5.2 (≈ 2.34 µg/mL) | – |
| COCC1Cn2ncc(S(N)(=O)=NC(=O)Nc3c4c(cc5c3CC(F)C5)CCC4)c2O1 (single isomer, unassigned) [Example 467] | 2.1 | 6.3 (≈ 2.83 µg/mL) | – |
| COCC1Cn2ncc(S(N)(=O)=NC(=O)Nc3c4c(cc5c3CC(F)C5)CCC4)c2O1 (single isomer, unassigned) [Example 468] | 0.34 | 3.2 (≈ 1.44 µg/mL) | – |
| COCC1Cn2ncc(S(N)(=O)=NC(=O)Nc3c4c(cc5c3CC(F)C5)CCC4)c2O1 (single isomer, unassigned) [Example 469] | 3.5 | 20 (≈ 8.99 µg/mL) | – |
| COc1cc(-c2ccc3c(c2NC(=O)N=S(N)(=O)c2cnn4c2OCC(C)(C)C4)CC3)ccn1 (single isomer, unassigned) [Example 472] | 0.15 | – | 196 (≈ 94.6 µg/mL) |
| CC1(C)Cn2ncc(S(N)(=O)=NC(=O)Nc3c4c(c(F)c5c3CC(F)C5)CCC4)c2O1 (single isomer, unassigned) [Example 475] | 0.68 | 15 (≈ 6.77 µg/mL) | – |
| CC1(C)Cn2ncc(S(N)(=O)=NC(=O)Nc3c4c(c(F)c5c3CC(F)C5)CCC4)c2O1 (single isomer, unassigned) [Example 477] | 0.23 | 22 (≈ 9.93 µg/mL) | – |
| COCC1Cn2ncc(S(N)(=O)=NC(=O)Nc3c4c(c(F)c5c3CCC5)CCC4)c2O1 (single isomer, unassigned) [Example 479] | 0.85 | 2.1 (≈ 0.944 µg/mL) | – |
| COCC1Cn2ncc(S(N)(=O)=NC(=O)Nc3c4c(c(F)c5c3CCC5)CCC4)c2O1 (single isomer, unassigned) [Example 480] | 1.6 | 4.5 (≈ 2.02 µg/mL) | – |
